Source: patent US10344026B2, “Compositions and methods of targeting mutant K-ras” (NANTBIO, INC., priority 2017, dated 2019)

Legend:
Type in all cases: cell-based
[1] = test system: A375 (K-Ras wild type cell line); assay: Viability assay (CellTiterBlue, 72 hr) A375; conditions: Homo sapiens, A-375, GI50, CellTiterBlue
Summary of the method: (§1)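 Each line was plated at 1000 cells per well and incubated for 72 hr with compound after an 18 hr settling period. CellTiterBlue fluorescence measured the result, and GI50 was fitted relative to DMSO and tamoxifen controls.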

[2] = test system: U87-MG (K-Ras wild type cell line); assay: Viability assay (CellTiterBlue, 72 hr) U87-MG; conditions: Homo sapiens, U-87 MG, GI50, CellTiterBlue, U87-MG K-Ras wild-type
Summary of the method: as §1

[3] = test system: phospho-Akt in Panc10.05 (G12D); assay: In-Cell Western phospho-Akt, Panc10.05; conditions: Homo sapiens, Panc1005, 1 h; Panc10.05, one hour treatment; read-out: In-Cell Western Panc10.05 (G12D) Akt (P)
Summary of the method: (§2)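 Following an 18 hr settle at 37° C, seeded cells receive test compound for 1 hr before fixation and staining with phospho-Akt and phospho-ERK primary antibodies (overnight, 4° C) plus a goat anti-rabbit secondary. Plates are imaged and fluorescence quantitated to give EC50.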

wild type K-Ras = target: T1, wild type K-Ras (Homo sapiens, UniProt P01116); assay: G-LISA Ras activation, 293H cells transfected with Ras wild-type, EGF stimulated; conditions: compound 1 hour, then 100 ng/ml EGF 2 minutes
T1 construct: expressed in transfected cells; host or cells: 293H cells
Summary of the method: (§3)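 293H cells were transfected with wild-type or mutant Ras plasmid (Lipofectamine 3000), then exposed next day to compounds at 3.125-25 μM for 1 hour. Wild-type transfectants received 100 ng/ml EGF for 2 minutes before ice-cold PBS wash, lysis on ice and G-LISA readout of active Ras.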

HCT116-G31D = assay: Viability assay (CellTiterBlue, 72 hr) HCT116; conditions: Homo sapiens, HCT-116, GI50, CellTiterBlue, HCT116 K-Ras G13D, read-out: 72 hr Cell Viability HCT116 (G13D)
Summary of the method: as §1

[4] = test system: phospho-ERK in Panc1 (G12D); assay: In-Cell Western phospho-ERK, Panc1; conditions: Homo sapiens, PANC-1, 1 h; Panc1, one hour treatment; read-out: In-Cell Western Panc1 (G12D) Erk (P)
Summary of the method: as §2

[5] = test system: phospho-Akt in A375 (Wild-type); assay: In-Cell Western phospho-Akt, A375; conditions: Homo sapiens, A-375, 1 h; A375, one hour treatment; read-out: In-Cell Western A375 (Wild-type) Akt (P)
Summary of the method: as §2

[6] = test system: phospho-ERK in Panc10.05 (G12D); assay: In-Cell Western phospho-ERK, Panc10.05; conditions: Homo sapiens, Panc1005, 1 h; Panc10.05, one hour treatment; read-out: In-Cell Western Panc10.05 (G12D) Erk (P)
Summary of the method: as §2

Panc1-G12D = assay: Viability assay (CellTiterBlue, 72 hr) Panc1; conditions: Homo sapiens, PANC-1, GI50, CellTiterBlue, Panc1 K-Ras G12D, read-out: 72 hr Cell Viability Panc1 (G12D)
Summary of the method: as §1

[7] = test system: Ishikawa (K-Ras wild type cell line); assay: Viability assay (CellTiterBlue, 72 hr) Ishikawa; conditions: Homo sapiens, GI50, CellTiterBlue, Ishikawa K-Ras wild-type
Summary of the method: as §1

[8] = test system: phospho-Akt in HCC827 (Wild-type); assay: In-Cell Western phospho-Akt, HCC827; conditions: Homo sapiens, 1 h; HCC827, one hour treatment; read-out: In-Cell Western HCC827 (Wild-type) Akt (P)
Summary of the method: as §2

[9] = test system: phospho-ERK in HCC827 (Wild-type); assay: In-Cell Western phospho-ERK, HCC827; conditions: Homo sapiens, 1 h; HCC827, one hour treatment; read-out: In-Cell Western HCC827 (Wild-type) Erk (P)
Summary of the method: as §2

K-Ras G12D = target: T2, K-Ras G12D (Homo sapiens, UniProt P01116, G12D); assay: G-LISA Ras activation, 293H cells transfected with G12D mutant; conditions: compound 1 hour
T2 construct: expressed in transfected cells; host or cells: 293H cells
Summary of the method: as §3

[10] = test system: phospho-ERK in A375 (Wild-type); assay: In-Cell Western phospho-ERK, A375; conditions: Homo sapiens, A-375, 1 h; A375, one hour treatment; read-out: In-Cell Western A375 (Wild-type) Erk (P)
Summary of the method: as §2

Panc10.05-G12D = assay: Viability assay (CellTiterBlue, 72 hr) Panc10.05; conditions: Homo sapiens, Panc1005, GI50, CellTiterBlue, Panc10.05 K-Ras G12D, read-out: 72 hr Cell Viability Panc10.05 (G12D)
Summary of the method: as §1

[11] = test system: HCC827 (K-Ras wild type cell line); assay: Viability assay (CellTiterBlue, 72 hr) HCC827; conditions: Homo sapiens, GI50, CellTiterBlue, HCC827 K-Ras wild-type
Summary of the method: as §1

[12] = test system: phospho-Akt in Panc1 (G12D); assay: In-Cell Western phospho-Akt, Panc1; conditions: Homo sapiens, PANC-1, 1 h; Panc1, one hour treatment; read-out: In-Cell Western Panc1 (G12D) Akt (P)
Summary of the method: as §2

T2 sequence (P01116 whole entry G12D): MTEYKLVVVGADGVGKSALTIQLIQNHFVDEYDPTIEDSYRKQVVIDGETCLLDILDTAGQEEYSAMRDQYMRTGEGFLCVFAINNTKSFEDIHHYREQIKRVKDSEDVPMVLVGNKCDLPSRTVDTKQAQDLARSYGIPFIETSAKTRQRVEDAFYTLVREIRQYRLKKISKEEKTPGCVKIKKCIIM
T1 sequence (P01116 whole entry): as the sequence (P01116 whole entry G12D) above, with D12G counted along it

SMILES | IC50 [1] | IC50 [2] | EC50 [3] | IC50 (wild type K-Ras) | IC50 (HCT116-G31D) | EC50 [4] | EC50 [5] | EC50 [6] | IC50 (Panc1-G12D) | IC50 [7] | EC50 [8] | EC50 [9] | IC50 (K-Ras G12D) | EC50 [10] | IC50 (Panc10.05-G12D) | IC50 [11] | EC50 [12]
CCn1cc(C(=O)Nc2nc(-c3ccc4c(c3)CCC(=O)N4Cc3cccnc3)cs2)c(C)n1 [Compound 115, 1-ethyl-3-methyl-N-(4-(2-oxo-1-(pyridin-3-ylmethyl)-1,2,3,4-tetrahydroquinolin-6-yl)thiazol-2-yl)-1H-pyrazole-4-carboxamide] | 6 µM | 17 µM | 12 µM | 6.3 µM | 10 µM | 2 µM | > 25 µM | 2 µM | 9 µM | 9 µM | > 25 µM | 6 µM | 3.4 µM | 9 µM | 4 µM | 11 µM | 18 µM
Cc1nn(C(C)C)cc1C(=O)Nc1nc(-c2ccc3c(c2)CCC(=O)N3Cc2cccnc2)cs1 [Compound 116, 1-isopropyl-3-methyl-N-(4-(2-oxo-1-(pyridin-3-ylmethyl)-1,2,3,4-tetrahydroquinolin-6-yl)thiazol-2-yl)-1-pyrazole-4-carboxamide] | 12 µM | > 25 µM | 2 µM | 6.1 µM | > 25 µM | 3 µM | > 25 µM | 0.745 µM | 3 µM | 21 µM | > 25 µM | 3 µM | 2.5 µM | 12 µM | 1.2 µM | 4 µM | 22 µM
Cc1nn(C(C)C)c(C)c1C(=O)Nc1nc(-c2ccc3c(c2)CCC(=O)N3Cc2cccnc2)cs1 [Compound 117, 1-isopropyl-3,5-dimethyl-N-(4-(2-oxo-1-(pyridin-3-ylmethyl)-1,2,3,4-tetrahydroquinolin-6-yl)thiazol-2-yl)-1H-pyrazole-4-carboxamide] | 14 µM | > 25 µM | 3 µM | 6.7 µM | > 25 µM | 4 µM | > 25 µM | 0.914 µM | 3 µM | 5 µM | > 25 µM | 4 µM | 2.6 µM | 15 µM | 1.4 µM | 4 µM | 23 µM
CCn1nc(C)c(C(=O)Nc2nc(-c3ccc4c(c3)CCC(=O)N4CCOC)cs2)c1C [Compound 119, 1-ethyl-N-(4-(1-(2-methoxyethyl)-2-oxo-1,2,3,4-tetrahydroquinolin-6-yl)thiazol-2-yl)-3,5-dimethyl-1H-pyrazole-4-carboxamide] | 8 µM | 6 µM | 1.5 µM | 5.4 µM | 16 µM | 3 µM | 12 µM | 0.759 µM | 2 µM | 3 µM | > 25 µM | 1.1 µM | 2.6 µM | 8 µM | 0.71 µM | 2 µM | 19 µM
COCCN1C(=O)CCc2cc(-c3csc(NC(=O)c4c(C)nn(C)c4C)n3)ccc21 [Compound 120, N-(4-(1-(2-methoxyethyl)-2-oxo-1,2,3,4-tetrahydroquinoinolin-6-yl)thiazol-2-yl)-1,3,5-trimethyl-1H-pyrazole-4-carboxamide] | 20 µM | 13 µM | 5 µM | 11.9 µM | > 25 µM | 5 µM | > 25 µM | 1.2 µM | 4 µM | 10 µM | > 25 µM | 3 µM | 3.4 µM | 24 µM | 0.802 µM | 4 µM | 26 µM
